In ChEMBL document CHEMBL1146917, “Discovery and structure-activity relationship of 2-phenyl-oxazole-4-carboxamide derivatives as potent apoptosis inducers” (Bioorg Med Chem Lett, 2006):
Values after ≈ are worked out from the molar mass of the structure shown. Active and inactive are the calls of the source. No cut-off for these calls is given here.

How the values were obtained:
DLD-1 [1] = experiment: Induction of apoptosis in human DLD1 cells assessed as activation of caspases by HTS assay; type: functional, cell-based
DLD-1 [2] = experiment: Growth inhibition of human DLD1 cells; type: functional
[3] = Solubility of the compound; type: physicochemical
DLD-1 [4] = experiment: Activity against caspase-mediated PARP cleavage in human DLD1 cells at 1 uM after 48 hrs by Western blot analysis; type: functional, cell-based
DLD-1 [5] = experiment: Activity against DNA laddering in DLD1 cells at 1 uM after 48 hrs; type: functional, cell-based; conditions: Homo sapiens
DLD-1 [6] = experiment: Inhibition of tumor growth in BALB/c nude mouse implanted with DLD1 cells at 50 mg/kg, ip, bid; type: functional; conditions: DLD-1, ip
DLD-1 [7] = experiment: Inhibition of tumor growth in BALB/c nude mouse implanted with DLD1 cells at 100 mg/kg, ip, qd; type: functional; conditions: DLD-1, ip
DLD-1 [8] = experiment: Inhibition of tumor growth in BALB/c nude mouse implanted with DLD1 cells at 50 mg/kg, ip, qd; type: functional; conditions: DLD-1, ip

Structure (SMILES)	EC50 (DLD-1 [1]) [nM]	other results
O=C(Cc1cccc(Cl)c1)NCc1ccc(-c2nc(C(=O)N3CCCCC3)co2)cc1	533	
O=C(Cc1ccc(Cl)cc1)NCc1ccc(-c2nc(C(=O)N3CCCCC3)co2)cc1	274	
O=C(Cc1ccccc1)NCc1ccc(-c2nc(C(=O)N3CCCC(Cl)C3)co2)cc1 (stereo unspecified)	119	
O=C(Cc1ccccc1)NCc1ccc(-c2nc(C(=O)N3CCCC(O)C3)co2)cc1 (stereo unspecified)	196	
O=C(Cc1ccccc1)NCc1ccc(-c2nc(C(=O)N3CCCCCC3)co2)cc1	33	
O=C(Cc1cccs1)NCc1ccc(-c2nc(C(=O)N3CCCCC3)co2)cc1	59	GI50 (DLD-1 [2]): 75 nM; solubility [3]: 29 µM (≈ 11.9 µg/mL)
O=C(Cc1ccc(O)cc1)NCc1ccc(-c2nc(C(=O)N3CCCCC3)co2)cc1	73	
O=C(Cc1ccccc1)NCc1ccc(-c2nc(C(=O)N3CCCCCCC3)co2)cc1	108	
O=C(Cc1cccc(O)c1)NCc1ccc(-c2nc(C(=O)N3CCCCC3)co2)cc1	139	
CC1CCN(C(=O)c2coc(-c3ccc(CNC(=O)Cc4ccccc4)cc3)n2)CC1	258	
O=C(Cc1ccccc1)NCc1ccc(-c2nc(C(=O)N3CCCC(F)C3)co2)cc1 (stereo unspecified)	85	
O=C(Cc1ccccc1)NCc1ccc(-c2nc(C(=O)N3CC4CC4C3)co2)cc1 (stereo unspecified)	318	
O=C(Cc1ccccc1)NCc1ccc(-c2nc(C(=O)N3CCCC(F)(F)C3)co2)cc1	20	GI50 (DLD-1 [2]): 15 nM; solubility [3]: < 10 µM
O=C(Cc1ccccc1)NCc1ccc(-c2nc(C(=O)N3CCCCC3)co2)cc1	65	GI50 (DLD-1 [2]): 258 nM; solubility [3]: 47 µM (≈ 19 µg/mL)
Cc1ccc(CC(=O)NCc2ccc(-c3nc(C(=O)N4CCCCC4)co3)cc2)cc1	142	
COC1CCCN(C(=O)c2coc(-c3ccc(CNC(=O)Cc4ccccc4)cc3)n2)C1 (stereo unspecified)	259	
O=C(Cc1ccccc1F)NCc1ccc(-c2nc(C(=O)N3CCCCC3)co2)cc1	65	

Structure (SMILES)	EC50 (DLD-1 [1]) [nM]	other results
C[C@@H]1CC[C@H](C)N1C(=O)c1coc(-c2ccc(CNC(=O)Cc3ccccc3)cc2)n1	34	
O=C(Cc1ccccc1)NCc1ccc(-c2nc(C(=O)N3CCC(Cl)CC3)co2)cc1	492	
O=C(Cc1ccccc1)NCc1ccc(-c2nc(C(=O)N3CCC(CO)CC3)co2)cc1	196	
O=C(Cc1ccccc1)NCc1ccc(-c2nc(C(=O)N3CCCC3)co2)cc1	553	
O=C(Cc1ccc(OC(F)(F)F)cc1)NCc1ccc(-c2nc(C(=O)N3CCCCC3)co2)cc1	270	Activity (DLD-1 [4]): Active; GI50 (DLD-1 [2]): 229 nM; Activity (DLD-1 [5]): Active; inhibition in vivo at 50 mg/kg (DLD-1 [6]): 63%; solubility [3]: 44 µM (≈ 21.4 µg/mL); inhibition in vivo at 100 mg/kg (DLD-1 [7]): 38%; inhibition in vivo at 50 mg/kg (DLD-1 [8]): 21%
O=C(Cc1ccccc1)NCc1ccc(-c2nc(C(=O)N3CCC(F)(F)CC3)co2)cc1	979	
COC1CCN(C(=O)c2coc(-c3ccc(CNC(=O)Cc4ccccc4)cc3)n2)CC1	5230	
O=C1CCN(C(=O)c2coc(-c3ccc(CNC(=O)Cc4ccccc4)cc3)n2)CC1	115	
O=C(Cc1cccc(F)c1)NCc1ccc(-c2nc(C(=O)N3CCCCC3)co2)cc1	72	
O=C(Cc1ccccc1)NCc1ccc(-c2nc(C(=O)N3CCC(O)CC3)co2)cc1	150	
O=C(Cc1ccccc1O)NCc1ccc(-c2nc(C(=O)N3CCCCC3)co2)cc1	1010	
O=C(Cc1ccc(F)cc1)NCc1ccc(-c2nc(C(=O)N3CCCCC3)co2)cc1	233	
O=C(Cc1ccccc1)NCc1ccc(-c2nc(C(=O)N3CC=CCC3)co2)cc1	108	
CC1CCCN(C(=O)c2coc(-c3ccc(CNC(=O)Cc4ccccc4)cc3)n2)C1 (stereo unspecified)	193	
O=C(Cc1ccccc1)NCc1ccc(-c2nc(C(=O)N3CCC(F)CC3)co2)cc1	304	
O=C1CCCN(C(=O)c2coc(-c3ccc(CNC(=O)Cc4ccccc4)cc3)n2)C1	235	
